In patent US10591487B2, “Small molecule detection and localization method based on MALDI imaging mass spectrometry” (INDUSTRY-ACADEMIC COOPERATION FOUNDATION, YONSEI UNIVERSITY, priority 2015, dated 2020):

What was measured:
[1] = system: CD31; experiment: Expression level of CD31 by immunohistochemical analysis of cancer cell; format: in vivo, mice; settings: cancer tissue after dosing voacangine or sunitinib; FIGS. 14 and 15
Method: Immunohistochemical analysis was performed to find an effect of voacangine against pathological angiogenesis of a cancer cell.
CD31 or Platelet Endothelial Cell Adhesion Molecule-1 (PECAM-1) are known as being expressed on the surface of a hematoblast such as platelet and naive T cell, natural killer cell, granulocyte, monocyte and cell-to-cell junction of endothelial as transmembrane glycoprotein of 130 kDa type belonging to immunoglobulin super-family.

[2] = system: Human Umbilical Vascular Endothelial Cell (HUVEC); experiment: In vitro and in vivo angiogenesis inhibition (cell-based HUVEC screening); settings: nontoxic dose, earlier finding of the inventors
Description: The inventors screened 300 crude extracts which are taken from a natural plant that is effective in proliferating Human Umbilical Vascular Endothelial Cell (HUVEC) by using a cell-based screening technique.

[3] = system: VEGF; experiment: Expression level of VEGF, target gene of HIF-1α; settings: earlier finding of the inventors
[4] = system: U87MG; experiment: Variation of cancer size in U87MG cancer-diseased animal model; settings: U87MG xenograft mice; voacangine 10 mg/kg i.p. every day for 12 days; compared with vehicle and sunitinib 40 mg/kg p.o.; FIG. 4
Method: A cell strain U87MG, which is a kind of human glioglastoma multiforme purchased from American Type Culture Collection (ATCC), was cultivated in a medium to which Phosphate-Buffered Saline (PBS): Matrigel (1:1) is added.
The cultivated cell strain U87MG of 5×10^6 was merged with PBS:Matrigel (1:1) of 100 μl and the mixture was injected into athymic nude mice for two weeks to induce growth of a cancer cell.

[5] = system: HIF-1α; experiment: Expression level of HIF-1α; settings: earlier finding of the inventors
[6] = system: capsaicin-induced contraction; settings: isolated mouse rectum; J. Nat. Med. 65 (2011) 157-165; cited from earlier work
[7] = Voacangine distribution in tumors, livers and kidneys by MALDI imaging mass spectrometry; format: in vivo, mice; settings: four hours after treating voacangine, FIG. 5
Description: After surgically removing tumors, livers, and kidneys from mouse models after four hours after treating voacangine in Embodiment 3, a specimen was manufactured to perform MALDI mass spectrometry and immunofluorescence with H&E straining and the result was shown in FIG. 5.

Row | SMILES | CD31 expression [1] | angiogenesis inhibition [2] | expression level of VEGF [3] | cancer size after dosage [4] | expression level of HIF-1α [5] | capsaicin-induced contraction [6] | localization of voacangine in livers, kidneys and cancer cells [7]
1 | CCN(CC)CCNC(=O)c1c(C)[nH]c(/C=C2\C(=O)Nc3ccc(F)cc32)c1C [sunitinib, Sunitinib malate, reference compound] | greatly reduced in expression | – | – | – | – | – | –
2 | CC[C@H]1C[C@@H]2C[N@]3CCc4c([nH]c5ccc(OC)cc45)[C@](C(=O)OC)(C2)C13 [voacangine] | greatly reduced in expression | inhibiting in vitro and in vivo angiogenesis by a nontoxic dose | dose-dependently inhibited | greatly reduced | dose-dependently inhibited | dose-dependently inhibiting | more concentrated in the cancer cells than the livers and kidneys
